In brackets after ≈: the same amount, converted by molar mass. Read-outs that look alike come from different tables or passages of the source.
Tests used:
[1] = PAMPA-GI permeability; assay type: in vitro ADME; details: for Papp at 16 h: 16 h of incubation (table title), 2% Tween 80, 10% MeOH, read-out: PAMPA-GI permeability P e
Method: Parallel Artificial Membrane Permeability Assay (PAMPA) was used to measure the permeability coefficient (P e) of codrug 4 through the artificial membrane to predict oral absorption. The carvacrol codrug 4 permeability was determined using PAMPA-GI protocols already developed. Briefly, donor and acceptor plates were assembled to form a “sandwich” and incubated at room temperature for 18 h.
P e can be calculated from the equation below: Pe={VD⋅VA/(VD+VA)⋅A⋅t⋅ln(1−[drug]acceptor/[drug]equilibrium)} (1) where P e is the effective permeability coefficient (cm × s^-1), V D is the volume of the donor compartment (0.15 cm^3) and V A is the volume of the acceptor compartment (0.30 cm^3), A is the effective filter area (0.28 cm^2), t is the incubation time for the assay (s), [drug] acceptor is the concentration of the compound in the acceptor compartment at assay completion, and [drug] equilibrium is the concentration of the compound at theoretical equilibrium.

[2] = Drug stability in simulated gastric fluid with pepsin; assay type: in vitro ADME; details: 37°C, read-out: t½ (converted)
Method: (§1) The HPLC system consisted of a Waters 600 HPLC pump (Waters Corporation, Milford, MA, USA), equipped with a Waters 2996 photodiode array detector. The column was a Kinetex RP-C8 column (3.0 x 150 mm, 5 μm). The mobile phase consisted of 0.1% TFA in acetonitrile/0.1% TFA in 95% H2O and 5% acetonitrile 50:50, under isocratic conditions at a flow rate of 1 mL/min. The UV detector was set at a length of 220 nm.
(§2) To assess enzymatic stability, hydrochloric buffer with pepsin (10 or 40 mg/mL) and phosphate buffer with pancreatin (10 or 40 mg/mL) were used. Buffer solution (250 μL) was preincubated at 37°C and 50 μL of drug stock solution (50 μM in ethanol and FASSIF 1:9) were added and shaken at 37°C and 650 rpm. Samples of 100 μL were withdrawn at various times and 100 µL of ice-cold acetonitrile containing 0.5 v/v% formic acid were added to stop enzymatic activity. Samples were vortexed and centrifuged at 2°C and 10000 rpm for 10 min. The drug content in the supernatant was analyzed by HPLC.

[3] = test system: pepsin; test: as above; assay type: in vitro ADME; details: for kobs: 37°C
Method: as §1, §2

[4] = test system: C. albicans ATCC 10231; test: Broth microdilution MIC/MFC; assay type: cell-based; details: Candida albicans, ATCC10231
Method: (§3) Two Gram-positive (S. aureus ATCC 29213 and S. epidermidis ATCC 35984) and two Gram-negative (E. coli ATCC 8739 and P. aeruginosa ATCC 9027) strains, and one fungal strain (C. albicans ATCC 10231) were used for the detection of antibacterial activity of carvacrol, NAC, Ac-Cys(Allyl)-OH, and carvacrol codrugs 1–10. All tested compounds were dissolved in 20% DMSO to prepare the stock solution (100 mg/mL). The final concentration of DMSO in each well appeared to be not toxic for all studied microorganisms, as confirmed by the solvent control test included in the study.
The MIC detection of C. albicans ATCC 10231 was performed using the broth microdilution method according to EUCAST guidelines in RPMI 1640 plus 2% glucose with a final inoculum of 1–5 x 10^5 CFU/mL for 24–48 h at 37°C. The Minimum Fungicidal Concentration (MFC) was determined as the lowest concentration of substances at which no fungal growth occurred on Sabouraud agar plates.
(§4) Data were obtained from at least three independent experiments performed in duplicate. The susceptibility of the bacterial strains against ciprofloxacin was used as an internal standard during MIC determinations.

[5] = test system: S. epidermidis ATCC 35984; test: Broth microdilution MIC/MBC on planktonic cells; assay type: cell-based; details: Staphylococcus epidermidis, ATCC35984
Method: as §3
(§5) The effects of carvacrol codrugs 1–10 and reference compounds on planktonic cells were evaluated by Minimum Inhibitory Concentration (MIC) and Minimum Bactericidal Concentration (MBC) determination using the broth microdilution method according to EUCAST guidelines. Bacterial suspensions, grown in Mueller–Hinton Broth (MHB) at logarithmic phase, were incubated on microtiter plates at a concentration of 5 x 10^5 CFU/mL, with several dilutions (0.07–40 mg/mL) for 24 h at 37°C. The MIC was defined as the lowest concentration of substances giving a complete inhibition of visible growth in comparison with a control well, and the MBC was determined as the lowest concentration at which no bacterial growth occurred on Mueller–Hinton Agar plates.
as §4

[6] = test system: S. aureus ATCC 29213; test: Broth microdilution MIC/MBC on planktonic cells; assay type: cell-based; details: Staphylococcus aureus, ATCC29213
Method: as §3, §5, §4

[7] = test system: P. aeruginosa ATCC 9027; test: Broth microdilution MIC/MBC on planktonic cells; assay type: cell-based; details: Pseudomonas aeruginosa, ATCC9027
Method: as §3, §5, §4

[8] = test system: E. coli ATCC 8739; test: Broth microdilution MIC/MBC on planktonic cells; assay type: cell-based; details: Escherichia coli, ATCC8739
Method: as §3, §5, §4

- Papp at 18 h ([1]; at each value of pH (5.0, 6.5, 7.4), after 18 h of incubation, read-out: PAMPA-GI permeability P e (bound)): > 1 ×10⁻⁶ cm/s
- Papp at 16 h ([1]; pH 5.0 in donor and acceptor): 8.6 ×10⁻⁶ cm/s
- Papp at 16 h ([1]; pH 6.5 in donor and acceptor): 17 ×10⁻⁶ cm/s
- Papp at 16 h ([1]; pH 7.4 in donor and acceptor): 2.34 ×10⁻⁶ cm/s
- half-life at 8.3 µM ([2]; simulated gastric fluid with pepsin 10 mg/mL, pH 1.3, SGF pH 1.3, pepsin 10 mg/mL): > 74 h
- half-life at 8.3 µM ([2]; simulated gastric fluid with pepsin 40 mg/mL, pH 1.3, SGF pH 1.3, pepsin 40 mg/mL): 5.79 h
- kobs ([3]; SGF pH 1.3, pepsin 10 mg/mL): 0.009 (± 0.001) h^-1
- kobs ([3]; SGF pH 1.3, pepsin 40 mg/mL): 0.119 (± 0.003) h^-1
- stability at pH 1.3 respect to pH 7.4 ([3]; in the presence of pepsin and pancreatin (10 mg/mL)): 13 fold
- MIC ([4]; C. albicans ATCC 10231, 24–48 h at 37°C, read-out: MIC): 1250 µg/mL (≈ 3.73 mM)
- MIC ([5]; S. epidermidis ATCC 35984, 24 h at 37°C, read-out: MIC): 2500 µg/mL (≈ 7.45 mM)
- MIC ([6]; S. aureus ATCC 29213, 24 h at 37°C, read-out: MIC): 2500 µg/mL (≈ 7.45 mM)
- MIC ([7]; P. aeruginosa ATCC 9027, 24 h at 37°C, read-out: MIC): 5000 µg/mL (≈ 14.9 mM)
- MIC ([8]; E. coli ATCC 8739, 24 h at 37°C, read-out: MIC): 2500 µg/mL (≈ 7.45 mM)
Compound: C=CCSC[C@H](NC(C)=O)C(=O)Oc1cc(C(C)C)ccc1C [codrug 4, N-Ac-Cys(Allyl)-CAR]
- MFC ([4]; C. albicans ATCC 10231, read-out: MFC): 1250 µg/mL (≈ 3.73 mM)
- MBC ([5]; S. epidermidis ATCC 35984, read-out: MBC): 2500 µg/mL (≈ 7.45 mM)
- MBC ([6]; S. aureus ATCC 29213, read-out: MBC): 2500 µg/mL (≈ 7.45 mM)
- MBC ([7]; P. aeruginosa ATCC 9027, read-out: MBC): 10000 µg/mL (≈ 29.8 mM)
- MBC ([8]; E. coli ATCC 8739, read-out: MBC): 2500 µg/mL (≈ 7.45 mM)
